# Reference: PubChem BioAssay AID1963839 (Molecular Pharmacology Branch, DTP, NCI, 2024)
# Test system: 817829-284-R-J1-PDC complex spheroid viability
# Experiment: Anticancer human tumor 817829-284-R-J1-PDC patient-derived colon adenocarcinoma cell line growth inhibition [POLQ]
# Conditions: for IC50: curve of first compound; for viability, T/C: stronger effect = lower value
# Experimental: Multicellular complex tumor spheroid response to Polymerase (POL) inhibitors (novobiocin, ART-558, RP6685) in combination with a variety of drugs and investigational agents in selected tumor cell lines
# The POL inhibitors (novobiocin, ART-558, and RP6685) were evaluated both individually and in combination with standard of care and investigational anticancer small molecules within a complex spheroid model of solid tumors. . Complex spheroids include a stromal component modeled by human endothelial cells (HUVEC) and fibroblasts modeled by human mesenchymal stem cells (MSCs). The concentration ranges selected for each drug and investigational agent were based upon clinically achievable concentrations if the clinical Cmax of the agent was known.
# Compounds. The drugs and investigational agents: novobiocin (NSC847541), ART-558 (NSC835418), RP-6685 (NSC848927), peposertib (NSC802822), ceralasertib (NSC780249), elimusertib (NSC800525), camonsertib (NSC841442), AZD-1390 (NSC803789), olaparib (NSC753686), talazoparib (NSC767125), rucaparib (NSC756644), sotorasib (NSC818433), MRTX-1133 (NSC836407), SN-38 (NSC673596), topotecan (NSC609699), epotoside (NSC141540), doxorubicin (NSC123127), gemcitabine (NSC613327), 5-fluorouracil (NSC19893), paclitaxel (NSC125973), vemurafenib (NSC761431), MSA-2 (NSC828583), SN-011 (NSC837082), adavosertib (NSC754352), prexasertib (NSC758257), carboplatin (NSC241240) and oxaliplatin (NSC266046), were obtained from the National Cancer Institute (NCI) Developmental Therapeutics Program Chemical Repository (21). The FDA-approved anticancer drug set is available from the Developmental Therapeutics Program at https://dtp.cancer.gov/organization/dscb/obtaining/. […] The stock solutions were prepared in dimethyl sulfoxide (DMSO, Sigma-Aldrich, St. Louis, MO, cat. D2650), except for the platinum compounds which were prepared in saline (Quality Biological, Gaithersburg, MD, cat. 114-055-101), at 800-fold the tested concentration and stored at -70 degrees C prior to their use. All drugs and investigational agents were tested over a range starting from a high concentration at or near the clinical Cmax and decreasing in half-log increments. If the clinical Cmax for an agent had not been determined, the highest concentration tested was 10 microM, except for SN-38, which was tested at a high concentration of 1 microM.
# Cell Culture. All cells were maintained in an incubator at 37 degrees C and 5% CO2 with 95% humidity. The PDC lines were cultured according to standard operating procedures established by the NCI PDMR (https://pdmr.cancer.gov). Table 3 of the manuscript, lists the cell lines along with the number of the three cell types plated to form the mct-spheroids and media for tumor cell growth. After thawing, all PDC lines, except 997537-175-T-J1-PDC and 415267-285-R-J2-PDC, were cultured in Matrigel-coated flasks prepared with a working solution of 1X Ham's F-12 nutrient mix, without supplementation (Thermo Fisher Scientific, cat. 11765054), 100 U/mL penicillin-streptomycin (Thermo Fisher Scientific, cat. 15140122), and 2.5% Matrigel (Corning Inc., Corning, NY, cat. 354248) for the first three passages. The two PDC lines 997537-175-T-J1-PDC and 415267-285-R-J2-PDC were cultured on uncoated flasks. The 857933-349-R-J2-PDC line was cultured in 6C/Colon 1B media containing advanced DMEM/F-12 (Thermo Fisher Scientific, cat. 12634028), 10 mM HEPES (Thermo Fisher Scientific, cat. 15630080), 1X GlutaMAX supplement (Thermo Fisher Scientific, cat. 35050061), 0.1 mg/mL primocin (InvivoGen, San Diego, CA, cat. ant-pm-2), 10% defined fetal bovine serum, heat inactivated (HyClone Laboratories Inc., Logan, UT, cat. SH30070.03HI), 50% L-WRN conditioned media (ATCC, cat. CRL-3276), 1.25 mM N-Acetyl-L-cysteine (Sigma-Aldrich, cat. A9165), 10 mM nicotinamide (Sigma-Aldrich, cat. N0636), 1X B-27 supplement (Thermo Fisher Scientific, cat. 17504044), 1X N-2 supplement (Thermo Fisher Scientific, cat. […]
# [1] = second compound 0.0316 µM, first compound 0.0316 µM
# [2] = second compound 0.0316 µM, first compound 0.1 µM
# [3] = second compound 0.0316 µM, first compound 0.316 µM
# [4] = second compound 0.0316 µM, first compound 1 µM
# [5] = second compound 0.0316 µM, first compound 3.16 µM
# [6] = second compound 0.0316 µM, first compound 10 µM
# [7] = second compound 0.1 µM, first compound 0.0316 µM
# [8] = second compound 0.1 µM, first compound 0.1 µM
# [9] = second compound 0.1 µM, first compound 0.316 µM
# [10] = second compound 0.1 µM, first compound 1 µM
# [11] = second compound 0.1 µM, first compound 3.16 µM
# [12] = second compound 0.1 µM, first compound 10 µM
# [13] = second compound 0.316 µM, first compound 0.0316 µM
# [14] = second compound 0.316 µM, first compound 0.1 µM
# [15] = second compound 0.316 µM, first compound 0.316 µM
# [16] = second compound 0.316 µM, first compound 1 µM
# [17] = second compound 0.316 µM, first compound 3.16 µM
# [18] = second compound 0.316 µM, first compound 10 µM
# [19] = second compound 1 µM, first compound 0.0316 µM
# [20] = second compound 1 µM, first compound 0.1 µM
# [21] = second compound 1 µM, first compound 0.316 µM
# [22] = second compound 1 µM, first compound 1 µM
# [23] = second compound 1 µM, first compound 3.16 µM
# [24] = second compound 1 µM, first compound 10 µM
# [25] = second compound 3.16 µM, first compound 0.0316 µM
# [26] = second compound 3.16 µM, first compound 0.1 µM
# [27] = second compound 3.16 µM, first compound 0.316 µM
# [28] = second compound 3.16 µM, first compound 1 µM
# [29] = second compound 3.16 µM, first compound 3.16 µM
# [30] = second compound 3.16 µM, first compound 10 µM
# [31] = second compound 10 µM, first compound 0.0316 µM
# [32] = second compound 10 µM, first compound 0.1 µM
# [33] = second compound 10 µM, first compound 0.316 µM
# [34] = second compound 10 µM, first compound 1 µM
# [35] = second compound 10 µM, first compound 3.16 µM
# [36] = second compound 10 µM, first compound 10 µM
# 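Further: spheroids exposed to compounds for 7 days.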
# 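Wherever viability, T/C is given: 100% = DMSO vehicle-treated spheroids.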
smiles,measurement,setting,value
C=CC(=O)N1CCN(c2nc(=O)n(-c3c(C)ccnc3C(C)C)c3nc(-c4c(O)cccc4F)c(F)cc23)C(C)C1 (centres undefined) + Cc1cccc(N(C)C(=O)C2C(O)CCN2c2nc(C)cc(C(F)(F)F)c2C#N)c1,IC50,second compound 0.0316 µM,9.4 µM
same,IC50,second compound 0.1 µM,9.47 µM
same,IC50,second compound 0.316 µM,9.09 µM
same,IC50,second compound 1 µM,7.8 µM
same,IC50,second compound 3.16 µM,7.29 µM
same,IC50,second compound 10 µM,> 10 µM
same,"viability, T/C",[1],94.4%
same,"viability, T/C",[2],140%
same,"viability, T/C",[3],112%
same,"viability, T/C",[4],105%
same,"viability, T/C",[5],82.7%
same,"viability, T/C",[6],48%
same,"viability, T/C",[7],91.1%
same,"viability, T/C",[8],109%
same,"viability, T/C",[9],104%
same,"viability, T/C",[10],110%
same,"viability, T/C",[11],86.3%
same,"viability, T/C",[12],48.2%
same,"viability, T/C",[13],92.2%
same,"viability, T/C",[14],109%
same,"viability, T/C",[15],108%
same,"viability, T/C",[16],83.5%
same,"viability, T/C",[17],83.1%
same,"viability, T/C",[18],46.9%
same,"viability, T/C",[19],92.9%
same,"viability, T/C",[20],91.2%
same,"viability, T/C",[21],112%
same,"viability, T/C",[22],99%
same,"viability, T/C",[23],86.4%
same,"viability, T/C",[24],39.9%
same,"viability, T/C",[25],113%
same,"viability, T/C",[26],125%
same,"viability, T/C",[27],87.8%
same,"viability, T/C",[28],89.3%
same,"viability, T/C",[29],76.3%
same,"viability, T/C",[30],39.9%
same,"viability, T/C",[31],89.4%
same,"viability, T/C",[32],104%
same,"viability, T/C",[33],84%
same,"viability, T/C",[34],113%
same,"viability, T/C",[35],66.9%
same,"viability, T/C",[36],54.9%
CC1COCCN1c1cc(C2(O)CC3CCC(C2)O3)c2cnn(-c3ccn[nH]3)c2n1 (centres undefined) + Cc1cccc(N(C)C(=O)C2C(O)CCN2c2nc(C)cc(C(F)(F)F)c2C#N)c1,IC50,second compound 0.0316 µM,< 0.0316 µM
same,IC50,second compound 0.1 µM,< 0.0316 µM
same,IC50,second compound 0.316 µM,< 0.0316 µM
same,IC50,second compound 1 µM,< 0.0316 µM
same,IC50,second compound 3.16 µM,< 0.0316 µM
same,IC50,second compound 10 µM,< 0.0316 µM
same,"viability, T/C",[1],28.6%
same,"viability, T/C",[2],10.7%
same,"viability, T/C",[3],4.5%
same,"viability, T/C",[4],3.59%
same,"viability, T/C",[5],2.99%
same,"viability, T/C",[6],2.26%
same,"viability, T/C",[7],29.8%
same,"viability, T/C",[8],11.4%
same,"viability, T/C",[9],4.57%
same,"viability, T/C",[10],3.83%
same,"viability, T/C",[11],3.59%
same,"viability, T/C",[12],2.95%
same,"viability, T/C",[13],28.6%
same,"viability, T/C",[14],9.76%
same,"viability, T/C",[15],3.78%
same,"viability, T/C",[16],3.72%
same,"viability, T/C",[17],3.01%
same,"viability, T/C",[18],1.9%
same,"viability, T/C",[19],24.4%
same,"viability, T/C",[20],9.97%
same,"viability, T/C",[21],4.66%
same,"viability, T/C",[22],4.17%
same,"viability, T/C",[23],2.77%
same,"viability, T/C",[24],2.21%
same,"viability, T/C",[25],26.8%
same,"viability, T/C",[26],9.02%
same,"viability, T/C",[27],5.06%
same,"viability, T/C",[28],3.24%
same,"viability, T/C",[29],2.62%
same,"viability, T/C",[30],2.27%
same,"viability, T/C",[31],23%
same,"viability, T/C",[32],10.3%
same,"viability, T/C",[33],6.05%
same,"viability, T/C",[34],3.31%
same,"viability, T/C",[35],2.74%
same,"viability, T/C",[36],2.44%
